Assay results: publication PMC3213090, “Phytophthora sojae Avirulence Effector Avr3b is a Secreted NADH and ADP-ribose Pyrophosphorylase that Modulates Plant Immunity” (PLoS Pathogens, 2011)

Legend:
[1] = biological target: T1, FLAG:AtNUDT7 (Arabidopsis thaliana, UniProt Q9SU14); assay: phosphate release coupled to calf alkaline phosphatase, molybdate A820; assay type: biochemical; settings: 2 mM substrate, 5 mM MgCl2, 1 mM DTT, pH 8.5, 37 C; immunoprecipitate, not homogeneous
T1 construct: gene NUDT7; FLAG tag fused; Nicotiana benthamiana transient expression, anti-FLAG immunoprecipitated, eluted
T1 sequence (Q9SU14 1-282): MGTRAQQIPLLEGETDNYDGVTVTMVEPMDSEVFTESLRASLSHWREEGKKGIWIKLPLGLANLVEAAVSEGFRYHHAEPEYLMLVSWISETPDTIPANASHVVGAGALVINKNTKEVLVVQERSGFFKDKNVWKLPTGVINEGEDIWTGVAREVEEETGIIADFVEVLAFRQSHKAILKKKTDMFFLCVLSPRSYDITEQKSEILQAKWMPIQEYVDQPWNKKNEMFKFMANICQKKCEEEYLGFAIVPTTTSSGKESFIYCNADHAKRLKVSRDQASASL

[2] = biological target: T2, FLAG:Avr3b^P6497 (Avh307^P6497) (Phytophthora sojae, UniProt E0W4V8); assay: as above; assay type: biochemical; settings: 2 mM substrate, 5 mM MgCl2, 1 mM DTT, pH 8.5, 37 C; immunoprecipitate, not homogeneous
T2 construct: gene Avh; signal peptide replaced by N-terminal FLAG tag; 34-35 kDa; precursor 315 residues; Nicotiana benthamiana agroinfiltration (PVX vector pGR107), anti-FLAG immunoprecipitated, 3xFLAG eluted
T2 sequence (E0W4V8 entry or part of it): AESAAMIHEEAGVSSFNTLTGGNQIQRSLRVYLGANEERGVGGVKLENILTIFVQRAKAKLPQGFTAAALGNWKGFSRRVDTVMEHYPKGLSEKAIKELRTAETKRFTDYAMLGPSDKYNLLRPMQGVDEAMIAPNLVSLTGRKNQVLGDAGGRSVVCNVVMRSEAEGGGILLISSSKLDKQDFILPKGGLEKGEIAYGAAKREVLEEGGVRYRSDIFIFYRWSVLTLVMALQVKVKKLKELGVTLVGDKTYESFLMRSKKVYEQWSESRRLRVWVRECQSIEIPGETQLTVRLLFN

Row | Compound | relative hydrolase activity (ratio over GFP) [1] | relative hydrolase activity (ratio over GFP) [2]
1 | NC(=O)C1=CN([C@@H]2O[C@H](COP(=O)(O)OP(=O)(O)OC[C@H]3O[C@@H](n4cnc5c(N)ncnc54)[C@H](O)[C@@H]3O)[C@@H](O)[C@H]2O)C=CC1 [NADH] | FLAG:AtNUDT7 and FLAG:Avr3b^P6497 immunoprecipitates could both hydrolyze ADPR and NADH | FLAG:AtNUDT7 and FLAG:Avr3b^P6497 immunoprecipitates could both hydrolyze ADPR and NADH
2 | Nc1ncnc2c1ncn2[C@@H]1O[C@H](COP(=O)(O)OP(=O)(O)OC[C@H]2OC(O)[C@H](O)[C@@H]2O)[C@@H](O)[C@H]1O (stereo partly shown) [ADP-ribose] | FLAG:AtNUDT7 and FLAG:Avr3b^P6497 immunoprecipitates could both hydrolyze ADPR and NADH | FLAG:AtNUDT7 and FLAG:Avr3b^P6497 immunoprecipitates could both hydrolyze ADPR and NADH
